# Laboratory results as given in patent US4360462A (priority 1977, dated 1982).
# Where two headings read alike, the source gives them in different places.
# How the values were obtained:
# Mycobacterium avium = assay: Antimicrobial activity, paper disc method; type: cell-based; details: 0.02 ml of 300 μg/ml solution, trypticase-soy agar
# Protocol: (§1) With trypticase-soy agar (BBL) as an assay medium, the inhibitory concentrations against the microorganisms named below were investigated by the paper disc method. Thus, filter-paper discs (Toyo Seisakusho, thin-type, 8 mm dia.) each impregnated with 0.02 ml of a 300 μg/ml solution of C-15003 P-3, P-3' or P-4 were placed on plates respectively inoculated with the microorganisms named below to investigate the minimal inhibitory concentrations.
# Serratia marcescens = assay: Antimicrobial activity, paper disc method; type: cell-based; details: 0.02 ml of 300 μg/ml solution, trypticase-soy agar
# Protocol: as §1
# Proteus vulgaris = assay: Antimicrobial activity, paper disc method; type: cell-based; details: 0.02 ml of 300 μg/ml solution, trypticase-soy agar
# Protocol: as §1
# Bacillus subtilis = assay: Antimicrobial activity, paper disc method; type: cell-based; details: 0.02 ml of 300 μg/ml solution, trypticase-soy agar
# Protocol: as §1
# Pseudomonas aeruginosa = assay: Antimicrobial activity, paper disc method; type: cell-based; details: 0.02 ml of 300 μg/ml solution, trypticase-soy agar
# Protocol: as §1
# Bacillus cereus = assay: Antimicrobial activity, paper disc method; type: cell-based; details: 0.02 ml of 300 μg/ml solution, trypticase-soy agar
# Protocol: as §1
# Proteus mirabilis = assay: Antimicrobial activity, paper disc method; type: cell-based; details: 0.02 ml of 300 μg/ml solution, trypticase-soy agar
# Protocol: as §1
# Staphylococcus aureus = assay: Antimicrobial activity, paper disc method; type: cell-based; details: 0.02 ml of 300 μg/ml solution, trypticase-soy agar
# Protocol: as §1
# Escherichia coli = assay: Antimicrobial activity, paper disc method; type: cell-based; details: 0.02 ml of 300 μg/ml solution, trypticase-soy agar
# Protocol: as §1
# Klebsiella pneumoniae = assay: Antimicrobial activity, paper disc method; type: cell-based; details: 0.02 ml of 300 μg/ml solution, trypticase-soy agar
# Protocol: as §1
# P388 leukemia = assay: Antitumour activity, P388 leukemia in mice; type: in vivo, mouse; details: 0.00625 mg/kg/day, intraperitoneally for 9 consecutive days; 1×10^6 cells/animal, intraperitoneally transplanted
# Tetrahymena pyriformis W = assay: Growth inhibitory activity, serial dilution method; type: cell-based; details: 28° C., 44 to 48 hours, pH 7.0, read-out: growth inhibition concentration
# Protocol: The potency of the antibiotic was assayed with Tetrahymena pyriformis W as an assay organism.
# (§2) On the other hand, with agar plates containing the assay medium [3.5 g disodium hydrogen phosphate, 0.5 g monopotassium dihydrogen phosphate, 5 g yeast extract (Difco), 10 g glucose, 15 g agar, 1000 ml distilled water, pH 7.0], the growth inhibition against Talaromyces avellaneus was assayed. In this assay, the minimal inhibitory concentrations were 3 μg/ml for C-15003 P-3 and P-3', and 1.5 μg/ml for C-15003 P-4. Furthermore, the wild strain of Tetrahymena pyriformis W as an assay organism was cultivated on an assay medium [composed of 20 g Proteose-peptone (Difco), 1 g yeast extract, 2 g glucose, 1000 ml distilled water and 10 ml 1 M-phosphate buffer pH 7.0] at 28° C. for 44 to 48 hours and the growth inhibitory activity of the antibiotic compounds against this particular microorganism was determined by the serial dilution method. Growth inhibition occurred at 1 μg/ml for C-15003 P-3 and P-3', and at 0.5 μg/ml for C-15003 P-4.
# Talaromyces avellaneus = assay: Growth inhibition on agar plates; type: cell-based; details: Hamigera avellanea, pH 7.0, read-out: minimal inhibitory concentration
# Protocol: as §2
# [1] = Acute toxicity test in mice; details: mouse, in vivo, ip, intraperitoneal injection
# [2] = in chloroform, ethyl acetate, acetone, ethanol, methanol, pyridine, tetrahydrofuran & dimethylsulfoxide
structure (smiles),measurement,setting,value
COc1cc2cc(c1Cl)N(C)C(=O)CC(OC(=O)C(C)C)C1(C)OC1C(C)C1CC(O)(NC(=O)O1)C(OC)C=CC=C(C)C2 (stereo not shown) [C-15003 P-3],Solubility,in benzene & ether,Sparingly soluble
same,Solubility,[2],Soluble
same,Solubility,"in petr. ether, hexane & water",Insoluble
same,antimicrobial activity (minimal inhibitory concentration),Mycobacterium avium,no activity
same,antimicrobial activity (minimal inhibitory concentration),Serratia marcescens,no activity
same,antimicrobial activity (minimal inhibitory concentration),Proteus vulgaris,no activity
same,antimicrobial activity (minimal inhibitory concentration),Bacillus subtilis,no activity
same,antimicrobial activity (minimal inhibitory concentration),Pseudomonas aeruginosa,no activity
same,antimicrobial activity (minimal inhibitory concentration),Bacillus cereus,no activity
same,antimicrobial activity (minimal inhibitory concentration),Proteus mirabilis,no activity
same,antimicrobial activity (minimal inhibitory concentration),Staphylococcus aureus,no activity
same,antimicrobial activity (minimal inhibitory concentration),Escherichia coli,no activity
same,antimicrobial activity (minimal inhibitory concentration),Klebsiella pneumoniae,no activity
same,life span-extending ratio,P388 leukemia,200%
same,MIC,Tetrahymena pyriformis W,1 µg/mL
same,MIC,Talaromyces avellaneus,3 µg/mL
same,LD50,[1],> 0.313 mg/kg
COc1cc2cc(c1Cl)N(C)C(=O)CC(OC(=O)CC(C)C)C1(C)OC1C(C)C1CC(O)(NC(=O)O1)C(OC)C=CC=C(C)C2 (stereo not shown) [C-15003 P-4],Solubility,in benzene & ether,Sparingly soluble
same,Solubility,[2],Soluble
same,Solubility,"in petr. ether, hexane & water",Insoluble
same,antimicrobial activity (minimal inhibitory concentration),Mycobacterium avium,no activity
same,antimicrobial activity (minimal inhibitory concentration),Serratia marcescens,no activity
same,antimicrobial activity (minimal inhibitory concentration),Proteus vulgaris,no activity
same,antimicrobial activity (minimal inhibitory concentration),Bacillus subtilis,no activity
same,antimicrobial activity (minimal inhibitory concentration),Pseudomonas aeruginosa,no activity
same,antimicrobial activity (minimal inhibitory concentration),Bacillus cereus,no activity
same,antimicrobial activity (minimal inhibitory concentration),Proteus mirabilis,no activity
same,antimicrobial activity (minimal inhibitory concentration),Staphylococcus aureus,no activity
same,antimicrobial activity (minimal inhibitory concentration),Escherichia coli,no activity
same,antimicrobial activity (minimal inhibitory concentration),Klebsiella pneumoniae,no activity
same,life span-extending ratio,P388 leukemia,200%
same,MIC,Tetrahymena pyriformis W,0.5 µg/mL
same,MIC,Talaromyces avellaneus,1.5 µg/mL
same,LD50,[1],> 0.313 mg/kg
